{"source": "the NIST ThermoML archive (doi:10.1016/j.fluid.2012.08.024)", "key": {"[1]": {"test": "mn = molality of the nth substance listed, in mol/kg", "conditions": "298.15 K, 101 kPa, Liquid; for mass density: Vibrating tube method; for molar conductivity: Alternating current cell with electrodes"}, "[2]": {"test": "refractive index (Na D-line) (dimensionless); mn = molality of the nth substance listed, in mol/kg", "conditions": "298.15 K, 101 kPa, Liquid, Standard Abbe refractometry"}}, "note": "± gives the expanded uncertainty stated by the source."}
{"compound": "O=C[C@H](O)[C@@H](O)[C@H](O)[C@H](O)CO", "note": "[D-glucose] + O", "values": [{"measurement": "mass density", "setting": "[1]; m1 = 0.0104", "value": "997.75 ± 0.29", "unit": "kg/m3"}, {"measurement": "mass density", "setting": "[1]; m1 = 0.03", "value": "999.09 ± 0.29", "unit": "kg/m3"}, {"measurement": "mass density", "setting": "[1]; m1 = 0.05", "value": "1000.45 ± 0.29", "unit": "kg/m3"}, {"measurement": "mass density", "setting": "[1]; m1 = 0.0705", "value": "1001.83 ± 0.29", "unit": "kg/m3"}, {"measurement": "mass density", "setting": "[1]; m1 = 0.0899", "value": "1003.13 ± 0.29", "unit": "kg/m3"}, {"measurement": "mass density", "setting": "[1]; m1 = 0.1102", "value": "1004.48 ± 0.3", "unit": "kg/m3"}, {"measurement": "refractive index", "setting": "[2]; m1 = 0.0104", "value": "1.3328 ± 0.0004"}, {"measurement": "refractive index", "setting": "[2]; m1 = 0.03", "value": "1.3334 ± 0.0004"}, {"measurement": "refractive index", "setting": "[2]; m1 = 0.05", "value": "1.3339 ± 0.0004"}, {"measurement": "refractive index", "setting": "[2]; m1 = 0.0705", "value": "1.3343 ± 0.0004"}, {"measurement": "refractive index", "setting": "[2]; m1 = 0.0899", "value": "1.3349 ± 0.0004"}, {"measurement": "refractive index", "setting": "[2]; m1 = 0.1102", "value": "1.3352 ± 0.0004"}, {"measurement": "refractive index", "setting": "[2]; m1 = 0.1301", "value": "1.3357 ± 0.0004"}, {"measurement": "refractive index", "setting": "[2]; m1 = 0.1496", "value": "1.3361 ± 0.0004"}, {"measurement": "refractive index", "setting": "[2]; m1 = 0.1691", "value": "1.3366 ± 0.0004"}]}
{"compound": "CCCCCCn1cc[n+](C)c1.[Br-]", "note": "[3-hexyl-1-methyl-1H-imidazolium bromide] + O", "values": [{"measurement": "molar conductivity", "setting": "[1]; m1 = 0.3716", "value": "0.01169 ± 4.2e-05", "unit": "S·m2/mol"}, {"measurement": "molar conductivity", "setting": "[1]; m1 = 0.9047", "value": "0.01149 ± 4.2e-05", "unit": "S·m2/mol"}, {"measurement": "molar conductivity", "setting": "[1]; m1 = 1.268", "value": "0.01134 ± 4.2e-05", "unit": "S·m2/mol"}, {"measurement": "molar conductivity", "setting": "[1]; m1 = 1.963", "value": "0.01117 ± 4.2e-05", "unit": "S·m2/mol"}, {"measurement": "molar conductivity", "setting": "[1]; m1 = 2.512", "value": "0.01099 ± 4.2e-05", "unit": "S·m2/mol"}, {"measurement": "molar conductivity", "setting": "[1]; m1 = 3.102", "value": "0.01085 ± 4.2e-05", "unit": "S·m2/mol"}, {"measurement": "molar conductivity", "setting": "[1]; m1 = 3.708", "value": "0.01072 ± 4.2e-05", "unit": "S·m2/mol"}, {"measurement": "molar conductivity", "setting": "[1]; m1 = 4.273", "value": "0.01055 ± 4.2e-05", "unit": "S·m2/mol"}, {"measurement": "molar conductivity", "setting": "[1]; m1 = 4.944", "value": "0.01044 ± 4.2e-05", "unit": "S·m2/mol"}, {"measurement": "molar conductivity", "setting": "[1]; m1 = 5.55", "value": "0.01034 ± 4.2e-05", "unit": "S·m2/mol"}, {"measurement": "mass density", "setting": "[1]; m1 = 0.1017", "value": "1001.8 ± 0.29", "unit": "kg/m3"}, {"measurement": "mass density", "setting": "[1]; m1 = 0.2038", "value": "1006.13 ± 0.3", "unit": "kg/m3"}, {"measurement": "mass density", "setting": "[1]; m1 = 0.3005", "value": "1010.26 ± 0.3", "unit": "kg/m3"}, {"measurement": "mass density", "setting": "[1]; m1 = 0.4033", "value": "1014.58 ± 0.31", "unit": "kg/m3"}]}
